Measurements published in US8507560B2, “Pharmaceutical compositions comprising 3,4-dihydroisoquinolin-2(1H)-yl-3-phenylurea derivatives having formyl peptide receptor like-1 (FPRL-1) agonist or antagonist activity” (Allergan, Inc., priority 2010, dated 2013).

Molecular target: T1, FPRL-1 (Homo sapiens, UniProt P25090)
T1 construct: expressed in transfected cells
T1 sequence (P25090 1-351): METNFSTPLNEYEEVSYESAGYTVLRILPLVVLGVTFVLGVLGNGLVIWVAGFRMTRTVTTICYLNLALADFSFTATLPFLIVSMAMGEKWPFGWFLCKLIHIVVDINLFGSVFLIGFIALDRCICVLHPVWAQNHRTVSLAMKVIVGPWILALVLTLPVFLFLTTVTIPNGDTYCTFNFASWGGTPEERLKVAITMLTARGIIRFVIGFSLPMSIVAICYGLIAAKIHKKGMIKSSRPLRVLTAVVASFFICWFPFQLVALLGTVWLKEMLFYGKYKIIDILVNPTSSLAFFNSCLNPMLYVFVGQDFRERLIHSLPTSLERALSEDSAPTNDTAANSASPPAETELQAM
Assay: FLIPR Tetra calcium activity assay in CHO-Ga16 cells stably expressing FPRL1
Format: cell-based
Conditions: compound-induced calcium activity; for EC50: 0.61 to 10,000 nM; for FPRL-1 Ga16-CHO (eff) efficacy: efficacy value in parentheses
Description: CHO-Ga16 cells stably expressing FPRL1 were cultured in (F12, 10% FBS, 1% PSA, 400 μg/ml geneticin and 50 μg/ml hygromycin) and HEK-Gqi5 cells stable expressing FPR1 were cultured in (DMEM high glucose, 10% FBS, 1% PSA, 400 μg/ml geneticin and 50 μg/ml hygromycin). In general, the day before the experiment, 18,000 cells/well were plated in a 384-well clear bottom poly-d-lysine coated plate. The following day the screening compound-induced calcium activity was assayed on the FLIPR^Tetra. The drug plates were prepared in 384-well microplates using the EP3 and the MultiPROBE robotic liquid handling systems. Compounds were tested at concentrations ranging from 0.61 to 10,000 nM. Results are expressed as EC50 (nM) and efficacy values.

COc1cc2c(cc1OC)CN(C(=O)C(CCCCNC(=O)c1ccco1)NC(=O)Nc1ccc(C)cc1)CC2 (centres unmarked) [Compound 1]
EC50: 143 nM | FPRL-1 Ga16-CHO (eff) efficacy: 0.61

COc1cc2c(cc1OC)CN(C(=O)C(CCCCNC(=O)Nc1ccccc1)NC(=O)Nc1ccc(Br)cc1)CC2 (centres unmarked) [Compound 2]
EC50: 91 nM | FPRL-1 Ga16-CHO (eff) efficacy: 0.79

COc1cc2c(cc1OC)CN(C(=O)C(CCCCNC(=O)Nc1ccccc1)NC(=O)Nc1ccc(SC)cc1)CC2 (centres unmarked) [Compound 3]
EC50: 32 nM | FPRL-1 Ga16-CHO (eff) efficacy: 0.76

COc1cc2c(cc1OC)CN(C(=O)C(CCCCNC(=O)NC1CCCCC1)NC(=O)Nc1ccc(SC)cc1)CC2 (centres unmarked) [Compound 4]
EC50: 59 nM | FPRL-1 Ga16-CHO (eff) efficacy: 0.71
